The text below walks through data of PubChem BioAssay (NCI).

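The compound was tested at five concentrations on cells cultured in 96-well plates, with a 48-hour exposure period. GI50 = concentration required for 50% inhibition of growth. TGI marks complete inhibition of growth.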 A value given as a limit tells only on which side of the number the result lay.

Some test systems named below: EKVX NSCLC; HCC-2998 colon; M14 melanoma; NCI-H23 lung; OVCAR-5 ovarian; RXF 393 renal; SK-MEL-2 melanoma; SK-MEL-5 melanoma; SK-OV-3 ovarian; T-47D breast.
Common to all, as to assay: DTP human tumour cell line panel, 48 h

In the case of `CS(=O)(=O)Nc1cc(-c2ccc3ncc(C#N)c(Nc4ccc(F)c(Cl)c4)c3c2)cnc1Cl`, the GI50 (in general, the concentration that inhibits growth by half) in the assay with EKVX NSCLC was 0.275 µM; in the assay on HCC-2998 colon, 0.382 µM; with M14 melanoma, 0.193 µM; with NCI-H23 lung it was 0.108 µM; with OVCAR-5 ovarian, 0.308 µM; in the assay on RXF 393 renal it was 0.125 µM. In addition, the GI50 in the assay with SK-MEL-2 melanoma is 0.133 µM; in the assay on SK-MEL-5 melanoma, 0.0428 µM; in the assay on SK-OV-3 ovarian, 0.194 µM; with T-47D breast, 0.0351 µM. The TGI (in general, the concentration giving total growth inhibition) in the assay on EKVX NSCLC amounted to 3.29 µM; in the assay on HCC-2998 colon, 1.55 µM; in the assay with M14 melanoma it was 1.92 µM; with NCI-H23 lung it was 3.91 µM; with OVCAR-5 ovarian, 2.29 µM; in the assay with RXF 393 renal, 0.6 µM. In addition, the TGI was 0.53 µM in the assay on SK-MEL-2 melanoma, 0.159 µM with SK-MEL-5 melanoma, 0.731 µM in the assay with SK-OV-3 ovarian and 0.403 µM in the assay with T-47D breast.
Take `CCc1ccc(Oc2c(-c3ccc(OCCc4cccc(C(F)(F)F)c4)cc3O)n[nH]c2C(F)(F)F)cc1`: the GI50 was 5.11 µM in the assay on EKVX NSCLC; 8.54 µM in the assay with HCC-2998 colon; 5.23 µM with M14 melanoma; 1.53 µM in the assay with NCI-H23 lung; 7.64 µM with OVCAR-5 ovarian; 4.94 µM in the assay with RXF 393 renal. Further, the GI50 in the assay on SK-MEL-2 melanoma is 6.54 µM; in the assay on SK-MEL-5 melanoma, 5.13 µM; in the assay with SK-OV-3 ovarian, 6.57 µM; in the assay on T-47D breast, 1.43 µM. The TGI in the assay on EKVX NSCLC is 11.2 µM; with HCC-2998 colon, 16 µM; with M14 melanoma, 11.9 µM; in the assay on NCI-H23 lung, 5.89 µM; with OVCAR-5 ovarian, 14.4 µM; in the assay with RXF 393 renal, 11.4 µM. Besides, the TGI amounted to 13.4 µM in the assay on SK-MEL-2 melanoma, 11 µM in the assay with SK-MEL-5 melanoma, 12.9 µM in the assay on SK-OV-3 ovarian and 4.95 µM in the assay on T-47D breast.
Turning to `CO/N=C(/C)COc1ccc2c(c1)oc(=O)c1cc(OC)ccc12`, the GI50 in the assay on EKVX NSCLC, in the assay on HCC-2998 colon, with M14 melanoma, with NCI-H23 lung, in the assay on OVCAR-5 ovarian and in the assay with RXF 393 renal was above 100 µM each time. Besides, the GI50 with SK-MEL-2 melanoma, in the assay with SK-MEL-5 melanoma, in the assay on SK-OV-3 ovarian and in the assay with T-47D breast was above 100 µM in each case. The TGI in the assay with EKVX NSCLC, in the assay with HCC-2998 colon, in the assay with M14 melanoma, in the assay with NCI-H23 lung, with OVCAR-5 ovarian and in the assay on RXF 393 renal was above 100 µM throughout. Besides, the TGI with SK-MEL-2 melanoma, in the assay on SK-MEL-5 melanoma, in the assay with SK-OV-3 ovarian and in the assay with T-47D breast was above 100 µM in each case.
With `COc1ccc2[nH]c(C(=O)OCc3ccc4c(Br)cc(Br)c(O)c4n3)cc2c1`, the GI50 in the assay with EKVX NSCLC was 1.41 µM; in the assay with HCC-2998 colon, 1.57 µM; with M14 melanoma it was 0.83 µM; in the assay on NCI-H23 lung, 1.38 µM; with OVCAR-5 ovarian, 1.21 µM; with RXF 393 renal, 0.486 µM. For the same molecule, the GI50 in the assay on SK-MEL-2 melanoma was 1.55 µM; with SK-MEL-5 melanoma, 1.61 µM; with SK-OV-3 ovarian, 3.16 µM; in the assay on T-47D breast, 1.15 µM. Further, the TGI came out at 2.82 µM with EKVX NSCLC; 3.06 µM in the assay with HCC-2998 colon; 2.29 µM with M14 melanoma; 2.99 µM in the assay with NCI-H23 lung; 2.66 µM with OVCAR-5 ovarian; 1.8 µM with RXF 393 renal. In addition, the TGI turned out to be 3.12 µM in the assay with SK-MEL-2 melanoma, 2.97 µM in the assay on SK-MEL-5 melanoma, 14.4 µM in the assay with SK-OV-3 ovarian and 3.57 µM with T-47D breast.
For the molecule `Nc1nc(N)c2cc(S(=O)(=O)c3ccc4ccccc4c3)ccc2n1`, the TGI in the assay on EKVX NSCLC was above 100 µM; with HCC-2998 colon, above 100 µM; in the assay with M14 melanoma, above 100 µM; in the assay on NCI-H23 lung, above 100 µM; with OVCAR-5 ovarian it was above 100 µM; with RXF 393 renal it was 48 µM. Moreover, the TGI is above 77.8 µM with SK-MEL-2 melanoma, above 65.7 µM with SK-MEL-5 melanoma, above 81.8 µM in the assay with SK-OV-3 ovarian and above 29.6 µM in the assay on T-47D breast. The GI50 was 2.23 µM in the assay with M14 melanoma and 3.81 µM in the assay with RXF 393 renal.
As to `COc1ccccc1CNCCCN1C(=O)c2ccc3c4c(ccc(c24)C1=O)C(=O)N(CCCNCCCCNCCCN)C3=O`, the GI50 was 1.39 µM with EKVX NSCLC; 0.295 µM with HCC-2998 colon; 0.645 µM in the assay on M14 melanoma; 0.356 µM with NCI-H23 lung; 2.03 µM in the assay with OVCAR-5 ovarian; 0.323 µM in the assay on RXF 393 renal. The GI50 in the assay on SK-MEL-2 melanoma was 0.227 µM; in the assay on SK-MEL-5 melanoma, 0.159 µM; in the assay with SK-OV-3 ovarian, 1.95 µM; in the assay on T-47D breast, 0.214 µM. In addition, the TGI was 3.22 µM with EKVX NSCLC; 1.06 µM with HCC-2998 colon; 2.08 µM with M14 melanoma; 2.05 µM in the assay with NCI-H23 lung; 11 µM with OVCAR-5 ovarian; 1.39 µM with RXF 393 renal. Also, the TGI in the assay with SK-MEL-2 melanoma was found to be 0.591 µM; in the assay on SK-MEL-5 melanoma, 0.302 µM; in the assay with SK-OV-3 ovarian, 11.1 µM; in the assay with T-47D breast it was 0.49 µM.
Regarding `Cc1nc2ccc(-n3ncc(C(=O)c4cc5ccccc5[nH]4)c3N)cc2[nH]1`, the GI50 in the assay on EKVX NSCLC is 20.9 µM; with HCC-2998 colon, 14.4 µM; with M14 melanoma, 12.2 µM; in the assay with NCI-H23 lung, 15.9 µM; with OVCAR-5 ovarian it was 16 µM; in the assay on RXF 393 renal it was 2.47 µM. Also, the GI50 is 25.9 µM in the assay on SK-MEL-2 melanoma, 5.46 µM in the assay on SK-MEL-5 melanoma, 14 µM with SK-OV-3 ovarian and 6.74 µM in the assay on T-47D breast. For the same molecule, the TGI was above 100 µM in the assay with EKVX NSCLC; above 100 µM in the assay with HCC-2998 colon; 63.4 µM in the assay with M14 melanoma; above 100 µM in the assay with NCI-H23 lung; above 100 µM in the assay with OVCAR-5 ovarian; 15.7 µM in the assay on RXF 393 renal. Also, the TGI in the assay with SK-MEL-2 melanoma is 88.5 µM; with SK-MEL-5 melanoma, 18.4 µM; in the assay with SK-OV-3 ovarian, above 100 µM; in the assay on T-47D breast it was 45.2 µM.
In the case of `COc1cc(/C=C2\CCC/C(=C\c3cc(CN4CCCC4)c(O)c(OC)c3)C2=O)cc(CN2CCCC2)c1O`, the GI50 was 6.94 µM in the assay with EKVX NSCLC; 2.55 µM in the assay on HCC-2998 colon; 2.9 µM in the assay on M14 melanoma; 4.81 µM in the assay with NCI-H23 lung; 4.18 µM in the assay with OVCAR-5 ovarian; 1.72 µM in the assay on RXF 393 renal. Further, the GI50 with SK-MEL-2 melanoma is 5.09 µM; with SK-MEL-5 melanoma, 4.12 µM; in the assay with SK-OV-3 ovarian it was 4.58 µM; with T-47D breast it was 7.97 µM. For the same molecule, the TGI was determined as 20.2 µM with EKVX NSCLC; 6.38 µM in the assay with HCC-2998 colon; 8.63 µM in the assay with M14 melanoma; 19.8 µM in the assay on NCI-H23 lung; 13.4 µM in the assay with OVCAR-5 ovarian; 5.68 µM in the assay on RXF 393 renal. The TGI with SK-MEL-2 melanoma came to 19.5 µM; in the assay on SK-MEL-5 melanoma it was 15.5 µM; with SK-OV-3 ovarian, 16.5 µM; with T-47D breast it was 22.3 µM.
As to `CSC1=CC(=O)c2ccccc2C1=O`, the GI50 in the assay with EKVX NSCLC is 15.5 µM; with HCC-2998 colon it was 15.3 µM; in the assay with M14 melanoma it was 2.03 µM; in the assay with NCI-H23 lung, 3.45 µM; with OVCAR-5 ovarian, 17.4 µM; in the assay with RXF 393 renal it was 1.54 µM. The GI50 in the assay with SK-MEL-2 melanoma is 11.6 µM; with SK-MEL-5 melanoma, 5.74 µM; in the assay with SK-OV-3 ovarian, 18.2 µM; in the assay on T-47D breast, 0.41 µM. For the same molecule, the TGI amounted to 34.9 µM with EKVX NSCLC; 29.9 µM in the assay on HCC-2998 colon; 3.88 µM in the assay with M14 melanoma; 17.5 µM with NCI-H23 lung; 34.2 µM in the assay with OVCAR-5 ovarian; 2.9 µM with RXF 393 renal. The TGI worked out at 33.7 µM with SK-MEL-2 melanoma, 19 µM with SK-MEL-5 melanoma, 32.1 µM in the assay with SK-OV-3 ovarian and 2.1 µM with T-47D breast.
